Reference: patent publication US12089595B2, “Pseudomonas strains and their metabolites to control plant diseases” (T3 Bioscience, Inc., priority 2020, dated 2024)
Converted amounts (≈) assume the structure as drawn. Like-named read-outs stand apart in the source and are kept apart here.

Experiments:
[1] = tested on: Pectobacterium parmentieri UPP163 936; assay: MIC antimicrobial assay (CLSI, 96 well plates); type: cell-based; conditions: UPP163936; Pectobacterium parmentieri UPP163 936 (soft rot)
[2] = tested on: Pseudomonas savastanoi pv. savastanoi; assay: MIC antimicrobial assay (CLSI, 96 well plates); type: cell-based
[3] = tested on: Pectobacterium carotovorum subsp. carotovorum wpp14 945; assay: MIC antimicrobial assay (CLSI, 96 well plates); type: cell-based; conditions: Pectobacterium carotovorum subsp. carotovorum wpp14 945 (soft rot)
R. solanacearum Pss = assay: microbe, parasite or virus in culture; type: cell-based; conditions: Ralstonia solanacearum, read-out: Diameter of the zone of inhibition
[4] = tested on: Flavobacterium columnare MS-FC-4; assay: MIC antimicrobial assay (CLSI, 96 well plates); type: cell-based; conditions: MSFC4; Flavobacterium columnare MS-FC-4 (Fish columnaris disease), SHIEH
[5] = tested on: Erwinia amylovora 898 (streptomycin-resistant); assay: microbe, parasite or virus in culture; type: cell-based
[6] = tested on: Pectobacterium atrosepticum 942; assay: MIC antimicrobial assay (CLSI, 96 well plates); type: cell-based; conditions: Pectobacterium atrosepticum 942 (soft rot)
E. amylovora = assay: Plate diffusion assay in LB plates; type: cell-based, Erwinia amylovora; conditions: 2 mg/mL; for zone of inhibition at 2000 µg/mL: Erwinia amylovora, read-out: Diameter of the Inhibitory zone
Excerpt: Two assays were used for the antimicrobial test of 0617-T307 cell broth and metabolites. One is plate diffusion assay and the other one is microplate assay. LB plate was used for the plate diffusion assay of the antimicrobial activity of RejuAgro A containing fractions and cell broths against E. amylovora (Table 3).

[7] = tested on: P. syringae (pv. tomato PT30, pv syringae 7046, pv. lachrymans 1188-1); assay: MIC antimicrobial assay; conditions: Pseudomonas syringae
[8] = tested on: Clavibacter michiganensis subsp. michiganensis Cmm 0317; assay: MIC antimicrobial assay (CLSI, 96 well plates); type: cell-based
[9] = tested on: Xanthomonas bacteria (Xanthomonas axonopodis pv. citri); assay: MIC antimicrobial assay; type: cell-based
[10] = tested on: Pectobacterium carotovorum subsp. brasiliensis 944; assay: MIC antimicrobial assay (CLSI, 96 well plates); type: cell-based; conditions: Pectobacterium carotovorum subsp. brasiliensis 944 (soft rot)
[11] = tested on: Clavibacter michiganensis subsp. michiganensis Cmm 0690; assay: MIC antimicrobial assay (CLSI, 96 well plates); type: cell-based
[12] = tested on: Erwinia amylovora DM1 (streptomycin-resistant); assay: microbe, parasite or virus in culture; type: cell-based
[13] = tested on: Pseudomonas syringae pv. tomato PT30; assay: MIC antimicrobial assay (CLSI, 96 well plates); type: cell-based; conditions: Pseudomonas syringae pv. tomato PT30 (Tomato bacterial speck)
[14] = tested on: Xanthomonas axonopodis pv. citri N40-SO5; assay: MIC antimicrobial assay (CLSI, 96 well plates); type: cell-based
E coli O157:H7 = assay: MIC antimicrobial assay (CLSI, 96 well plates); type: cell-based
[15] = tested on: Xanthomonas campestris pv. Pruni; assay: MIC antimicrobial assay (CLSI, 96 well plates); type: cell-based; conditions: Xanthomonas campestris pv. Pruni (Bacterial Spot of Peach)
[16] = tested on: Flavobacterium columnare #2; assay: MIC antimicrobial assay (CLSI, 96 well plates); type: cell-based; conditions: Flavobacterium columnare #2 (Fish columnaris disease), TYES
[17] = tested on: Pseudomonas soli 0617-T307; assay: MIC antimicrobial assay (CLSI, 96 well plates)
[18] = tested on: Xanthomonas arboricola pv. Juglandis 219; assay: MIC antimicrobial assay (CLSI, 96 well plates); type: cell-based
[19] = tested on: Pseudomonas syringae pv. lachrymans 1188-1; assay: MIC antimicrobial assay (CLSI, 96 well plates); type: cell-based; conditions: Pseudomonas syringae pv. lachrymans 1188-1 (Angular Leaf Spot of Cucurbits)
[20] = tested on: Clavibacter michiganensis subsp. michiganensis NCPPB382; assay: MIC antimicrobial assay (CLSI, 96 well plates); type: cell-based
[21] = tested on: Erwinia amylovora CA11 (streptomycin-resistant); assay: microbe, parasite or virus in culture; type: cell-based
[22] = tested on: X. arboricola pv. Juglandis Xaj417; assay: microbe, parasite or virus in culture; type: cell-based, Xanthomonas arboricola pv. Juglandis; conditions: Xanthomonas arboricola, read-out: Diameter of the zone of inhibition
[23] = tested on: X. arboricola pv. Juglandis Xaj219; assay: microbe, parasite or virus in culture; type: cell-based, Xanthomonas arboricola pv. Juglandis; conditions: Xanthomonas arboricola, read-out: Diameter of the zone of inhibition
[24] = tested on: Methicillin-resistant staphylococcus aureus USA300; assay: microbe, parasite or virus in culture; type: cell-based
Erwinia amylovora 110 = assay: microbe, parasite or virus in culture; type: cell-based
Dickeya dadantii 3937 = assay: MIC antimicrobial assay (CLSI, 96 well plates); type: cell-based; conditions: Dickeya dadantii 3937 (soft rot)
[25] = tested on: Pseudomonas syringae pv syringae 7046; assay: MIC antimicrobial assay (CLSI, 96 well plates); type: cell-based; conditions: Pseudomonas syringae pv syringae 7046 (Bacterial canker or blast)
E. amylovora 110 = assay: Greenhouse blossom blight assay on crabapples trees (RejuAgro A); type: in vivo, Erwinia amylovora
Experimental: To evaluate the biological control activity of RejuAgro A against Erwinia amylovora, greenhouse infection assay on crabapples trees was conducted at the University of Wisconsin-Milwaukee. Ten μg/mL was supplemented with 1% Polyethylene glycol (PEG) 4000 or 1% PEG4000 (negative control) were applied on full bloom trees flowers 3 hours prior to the inoculation and 24 hours post-inoculation. Approximately 10^8 CFU/mL of E. amylovora 110 strain resuspended in water was used as inoculum. The infection rate was calculated at around day 6 post inoculation. RejuAgro A can effectively suppress the blossom blight (Table 6).

[26] = tested on: Xanthomonas campestris pv. vesicatoria XV-16; assay: MIC antimicrobial assay (CLSI, 96 well plates); type: cell-based; conditions: Xanthomonas campestris pv. vesicatoria XV-16 (Tomato bacterial spot)
Erwinia amylovora 1189 = assay: MIC antimicrobial assay (CLSI, 96 well plates); type: cell-based
[27] = Staphylococcus aureus, MRSA / USA300

SMILES | MIC [1] [mg/L] | MIC [3] [mg/L] | MIC [4] [mg/L] | MIC ([5]; Erwinia amylovora) [mg/L] | MIC [6] [mg/L] | zone of inhibition at 2000 µg/mL (E. amylovora) [mm] | MIC [7] [mg/L] | MIC [8] [mg/L] | MIC [9] [mg/L] | MIC [10] [mg/L] | MIC [11] [mg/L] | MIC ([12]; Erwinia amylovora) [mg/L] | MIC [13] [mg/L] | MIC [14] [mg/L] | MIC (E coli O157:H7) [mg/L] | MIC ([15]; read-out: MIC) [mg/L] | MIC [16] [mg/L] | MIC ([17]; Pseudomonas soli, 0617T307) [mg/L] | MIC [19] [mg/L] | MIC [20] [mg/L] | other results
CSC1=C(C)C(=O)C(=O)NC1=O [RejuAgro A] | 40 (≈ 216 µM) | 40 (≈ 216 µM) | 5 (≈ 27 µM) | 10 (≈ 54 µM) | 20 (≈ 108 µM) | 11 | 40 (≈ 216 µM) | 1.56 (≈ 8.42 µM) | 5 (≈ 27 µM) | 40 (≈ 216 µM) | 12.5 (≈ 67.5 µM) | 10 (≈ 54 µM) | 40 (≈ 216 µM) | 5 (≈ 27 µM) | 40 (≈ 216 µM) | 40 (≈ 216 µM) | 5 (≈ 27 µM) | > 40 | 10 (≈ 54 µM) | 6.25 (≈ 33.7 µM) | MIC ([2]; Pseudomonas savastanoi): 40 mg/L (≈ 216 µM); zone of inhibition at 2000 µg/mL (R. solanacearum Pss): 5 mm; Diameter of the Inhibitory zone (E. amylovora): showed the antimicrobial activity; MIC ([17]; Pseudomonas soli 0617-T307 (RejuAgro A producer), LB media): >40 mg/L; MIC ([18]; Xanthomonas arboricola): 6.25 mg/L (≈ 33.7 µM); MIC ([21]; Erwinia amylovora): 10 mg/L (≈ 54 µM); zone of inhibition at 2000 µg/mL [22]: 10 mm; zone of inhibition at 2000 µg/mL [23]: 5 mm; MIC ([24]; MRSA USA300 (Skin infection, sepsis)): >40 mg/L; MIC [24, 27]: > 40 mg/L; MIC (Erwinia amylovora 110): 5 mg/L (≈ 27 µM); MIC (Dickeya dadantii 3937): 40 mg/L (≈ 216 µM); MIC [25]: 20 mg/L (≈ 108 µM); Infection rate (E. amylovora 110; 10 μg/mL with 1% PEG4000, 3 hours prior and 24 hours post-inoculation, around day 6, negative control 50.8%): 12.3%; MIC [26]: 2.5 mg/L (≈ 13.5 µM); MIC (Erwinia amylovora 1189; Erwinia amylovora, 1189, Erwinia amylovora 1189 (Fire blight on apples/pears)): 5 mg/L (≈ 27 µM)
[H]/N=C(/N)N[C@H]1[C@H](O)[C@@H](O)[C@H](O[C@@H]2O[C@@H](C)[C@](O)(C=O)[C@H]2O[C@@H]2O[C@@H](CO)[C@H](O)[C@@H](O)[C@@H]2NC)[C@@H](N/C(N)=N\[H])[C@@H]1O [Streptomycin, reference compound] | 40 (≈ 68.8 µM) | 40 (≈ 68.8 µM) | 1.25 (≈ 2.15 µM) | > 40 | 20 (≈ 34.4 µM) | 24 | 2.5 to 5 (≈ 4.3 to 8.6 µM) | 3.12 (≈ 5.36 µM) | 0.16 (≈ 0.275 µM) | 40 (≈ 68.8 µM) | 12.5 (≈ 21.5 µM) | > 40 | 2.5 (≈ 4.3 µM) | 0.16 (≈ 0.275 µM) | 20 (≈ 34.4 µM) | > 40 | 0.31 (≈ 0.533 µM) | > 40 | 5 (≈ 8.6 µM) | 12.5 (≈ 21.5 µM) | MIC ([2]; Pseudomonas savastanoi pv. savastanoi (Olive knot), read-out: MIC): 0.31 mg/L (≈ 0.533 µM); zone of inhibition at 100 µg/mL (R. solanacearum Pss): 15 mm; MIC ([5]; Erwinia amylovora 898, spontaneous streptomycin-resistant): >40 mg/L; MIC ([12]; Erwinia amylovora DM1, streptomycin-resistant): >40 mg/L; MIC [15]: >40 mg/L; MIC ([18]; Xanthomonas arboricola pv. Juglandis 219 (walnut blight), read-out: MIC): 0.39 mg/L (≈ 0.671 µM); MIC ([21]; Erwinia amylovora): > 40 mg/L; MIC ([21]; Erwinia amylovora CA11, streptomycin-resistant): >40 mg/L; zone of inhibition at 100 µg/mL [22]: 19 mm; zone of inhibition at 100 µg/mL [23]: 13 mm; MIC [24, 27]: 10 mg/L (≈ 17.2 µM); MIC (Erwinia amylovora 110): 5 mg/L (≈ 8.6 µM); MIC (Dickeya dadantii 3937): 20 mg/L (≈ 34.4 µM); MIC [25]: 2.5 mg/L (≈ 4.3 µM); Infection rate (E. amylovora 110; 200 μg/mL, around day 6 post inoculation): 5.7%; MIC [26]: 20 mg/L (≈ 34.4 µM); MIC (Erwinia amylovora 1189; Erwinia amylovora 1189 (Fire blight on apples/pears)): 20 mg/L (≈ 34.4 µM); MIC (Erwinia amylovora 1189; Erwinia amylovora, 1189, Erwinia amylovora 1189 (Fire blight on apples/pears), read-out: MIC): 10 mg/L (≈ 17.2 µM)
